Reference: patent US20020041848A1, “Chemically Specific Imaging Of Tissue” (priority 1999, published 2002)

Assays:
lab rats = conditions: cited from earlier work
human finger tip = conditions: in vivo, 5 min
Protocol: Raman spectra were collected from a human finger tip irradiated with a near-infrared laser beam using conventional equipment, including a light collection and analysis system. Test agents were applied to the finger tip and allowed to penetrate the tissue for 5 minutes before rinsing the finger tip with acetone.

Row | Compound | symptoms at about double the 10-15% body water replacement (lab rats; lab rats, continuous regimen of D2O) | share of total body water weight replaced by D2O below which there are no signs of ingestion or poisoning (lab rats; rat, in vivo) | depth of penetration indicated by persistence of peak near 2200 cm^-1 (human finger tip)
1 | [2H]O[2H] [D2O] | severe | 10-15% | –
2 | [2H]C([2H])([2H])C([2H])([2H])C([2H])([2H])C([2H])([2H])C([2H])([2H])C([2H])([2H])C([2H])([2H])C([2H])([2H])C([2H])([2H])C([2H])([2H])C([2H])([2H])C([2H])([2H])C([2H])([2H])C([2H])([2H])C([2H])([2H])C([2H])([2H])C([2H])([2H])C(=O)O [stearic acid-d35] | – | – | 1-2 mm
